Where “and” joins values, the source holds several entries; their conditions need not be identical. Equal entries are not always repeated.
Legend:
YAP/TEAD = settings: literature; cited from earlier work
TEAD [1] = settings: literature; cited from earlier work
TEADs = assay: TEAD-specific 8×GTIIC-luciferase reporter assay; assay type: cell-based; settings: for inhibition at 10 µM: 8×GTIIC-luciferase, read-out: Luciferase reporter assay inhibitory rate; for IC50: dose response, read-out: TEADs transcription inhibition IC50, luciferase reporter assay
Method: A series of compounds featuring a chloromethyl ketone moiety were synthesized (Schemes 1-4). The inhibitory rate of this series of compounds was tested using 8×GTIIC-luciferase reporter assay at 10 μM.
Next, the inhibition of TEAD transcription activity of compounds was tested varying the dosage using the 8×GTIIC-luciferase reporter assay. […] The aim was to determine whether its inhibition of TEAD transcription can lead to downregulation of the YAP-TEAD target genes. CTGF is one of the best characterized (bona fide) target gene of YAP and TAZ.
To further investigate the mechanism of the inhibitory effect of compounds in Huh7 cells, TEADs specific luciferase reporter assays were performed with compounds 22 and 12 at several concentrations. […] TEAD downstream gene expression patterns were evaluated in liver cancer cells Huh7, which has been evidenced with relative high expression of YAP and TEAD2.
HEK 293T cells were plated at 2×10^4 cells/well in a 96 well microplate and were transfected with 50 ng of 8×GTIIC-luciferase plasmid (Addgene #34615) and 0.5 ng of pRL-CMV (Promega #E226A) by using lipofectamine 3000 (Life Technologies #L3000). The 8×GTIIc-luciferase reporter is a Yap/Taz-activity reporter containing eight TEAD consensus binding sequences. After 6 h, transfected cells were treated with various concentrations of compounds or DMSO control. Luciferase signals were measured using the Dual Luciferase Reporter Assay System (Promega, E1960) according to the manufacturer's instructions. Experiments were performed in triplicate and repeated at least three times.

Huh7 cells = assay: Huh7 cell proliferation assay (CCK8); assay type: cell-based, human; settings: Homo sapiens, Huh-7, 72 h; 3 days; CCK8; mean ± SD of three independent experiments; read-out: Cell proliferation assay IC50, Huh7
Method: CCK8 assay kit was used to determine antiproliferative activity of synthesized compounds against Huh7 cell line. First, Huh7 cells were seeded into 96-well plates at a density of 3000 cells/well and incubated overnight. Cells were then co-incubated with compounds at 8 concentrations for 72 h. Then, the cell proliferation was determined by the CCK8 kit according to the standard protocol. Experiments were performed in triplicate.

[2] = AML12 normal liver cell growth inhibition (CCK8); assay type: cell-based; settings: mouse, aml12 cells
AML12 cells = assay: AML12 normal liver cell growth inhibition (CCK8); assay type: cell-based; settings: for Inhibitory rate, AML12 (inhibitory percentage of AML12 cell growth): 10 μM, 3 days
CTGF [3] = assay: CTGF mRNA expression by RT-qPCR in Huh7 cells; assay type: cell-based, human; settings: dose-dependent
Method: Huh7 and HepG2 liver cancer cells were seeded at 1×10^6 cells/dish and allowed to adhere overnight. The cells were then treated with indicated doses of compounds in medium for 24 hours. The cells were then harvested, and total RNA was purified using the Aurum total RNA mini kit (Bio-Rad #732-6820) according to the manufacturer's instructions. Complementary DNA was synthesized from 500 ng total RNA template by iScript reverse transcription kit (Bio-Rad #1725037) according to the manufacturer's instructions. Real-time PCR reactions utilized 60 ng cDNA and PrimePCR primers from Bio-Rad (Unique Assay ID: human GAPDH-qHsaCEP0041396, human CTGF-qHsaCEP0024255, human CYR61-qHsaCEP0024230) designed for SYBR Green gene expression analysis (Bio-Rad #1726270). All reactions were carried out in triplicate using Quant Studio 3 PCR system (Applied Biosystems). Relative gene expression level was quantified via ΔΔCt method by using GAPDH as an endogenous reference.

CTGF [4] = assay: CTGF protein expression by western blotting in Huh7 cells; assay type: cell-based, human; settings: dose-dependent
Method: Treated Huh7 cells were harvested and lysed in cold RIPA lysis buffer containing […] and phosphatase inhibitors. The protein concentrations were determined using the BCA Protein Assay kit. The prepared protein samples were loaded on and separated by 10% SDS-PAGE gel and then were transferred to PVDF membrane. Blots were blocked for 1 h at RT in blocking buffer and incubated with corresponding primary antibodies: anti-CTGF (ab227180), and anti-GAPDH (ab9485), at 4 ° C overnight. Then the blots were incubated with HRP-conjugated anti-rabbit secondary antibody in blocking buffer for 1.5 h at RT. The membranes were imaged with ChemiDoc MP imaging system.

TEAD [5] = assay: Fluorescence polarization assay; assay type: binding; settings: FIG. 1D
Source text: FIGS. 1A-1D depict discovery of C-3 as moderate TEAD transcription inhibitor. (FIG. 1A) The flowchart of the docking-based virtual screening campaign. (FIG. 1B) Predicted binding mode of C-3 in TEAD2 lipid binding pocket.

YAP [6] = settings: literature; cited from earlier work
YAP-TEAD = settings: all four TEAD family members; cited from earlier work
YAP [7] = settings: literature; cited from earlier work; remark: listed apart in the source

In the case of `Cc1ccc2c(c1)c1c3n2CCNC3CCC1` (stereo not shown) [CPD3.1], the “YAP/TEAD interaction, co-IP” value (YAP/TEAD) is listed as “disrupt YAP/TEAD interaction” and the TEAD reporter activity (TEAD [1]) is listed as “inhibits TEAD reporter activity”.

For `O=C(CCl)c1c[nH]c2cc(Cl)c(OCc3ccc4ccccc4c3)cc12` [Compound 2, 2-chloro-1-(6-chloro-5-(naphthalen-2-ylmethoxy)-1H-indol-3-yl)ethan-1-one], the inhibition at 10 µM (TEADs) was 95.6%, the IC50 (TEADs) was 890 nM and 870 nM and the “TEAD transcription inhibition, luciferase reporter” value (TEADs; varying dosage, FIGS. 3A-3B) was “potent inhibition activity”. The IC50 (Huh7 cells) was 2300 ± 600 nM, the inhibition at 10 µM ([2]; "at 10 M", read-out: Inhibitory rate of AML cells) was 32% and the “Toxicity towards normal liver cell line AML12” value (AML12 cells) was “least toxic of the covalent compounds”. For the same compound, the “Inhibitory rate, AML12 (inhibitory percentage of AML12 cell growth)” value (AML12 cells) was 32.1%, the “CTGF mRNA expression, Huh7” value (CTGF [3]) was “significantly decreased” and the “CTGF protein expression, Huh7” value (CTGF [4]) was “dose-dependent decrease”.

With `O=C(CCl)NCc1c[nH]c2cc(Cl)c(OCc3ccccc3)cc12` [Compound 12, N-((5-(benzyloxy)-6-chloro-1H-indol-3-yl)methyl)-2-chloroacetamide] the inhibition at 10 µM (TEADs) was 97.8%, the IC50 (TEADs) was 629 nM and the IC50 (Huh7 cells) was 1200 ± 300 nM. For the same compound, the “Inhibitory rate, AML12 (inhibitory percentage of AML12 cell growth)” value (AML12 cells) was 34.2%, the “CTGF mRNA expression, Huh7” value (CTGF [3]) was “suppressed” and the “CTGF protein expression, Huh7” value (CTGF [4]) was “suppression of CTGF protein production”.

`Clc1cc2[nH]ccc2cc1OCc1ccccc1` [Compound C-3] showed an inhibition at 10 µM (TEADs) of 68.3%, an IC50 (TEADs) of 5000 nM and an IC50 (Huh7 cells) of 32500 nM. The inhibition at 72 h, 10 µM ([2]; 10 μM, 3 days, read-out: Inhibitory rate, AML12 (inhibitory percentage of AML12 cell growth)) was 20% and the “Fluorescence polarization, inhibition” value (TEAD [5]) was “inhibition”.

For `COc1ccc(-c2cc(-c3ccccc3)nc3c2CC(=O)Nc2ccccc2-3)cc1OC` [NSC682769], the YAP binding (YAP [6]) is given as “directly bind to YAP”, the “Association of YAP with TEAD family members” value (YAP-TEAD) is given as “inhibit its association with all four TEAD family members” and the YAP expression (YAP [7]) is given as “attenuates YAP expression”.

From US20260337177A1, “TEAD CORE INHIBITORS FOR CANCER THERAPEUTICS” (University of Florida Research Foundation, Incorporated, priority 2023, published 2026)
